# Experimental data: article PMC7915588, “Polyphyllin D Shows Anticancer Effect through a Selective Inhibition of Src Homology Region 2-Containing Protein Tyrosine Phosphatase-2 (SHP2)” (Molecules, 2021)
# What was measured:
# Assay in all cases: biochemical
# Parameters in all cases: Fluorogenic phosphatase assay, DiFMUP hydrolysis by recombinant PTPs, initial velocity, Ex/Em 355/460 nm
# Conditions in all cases: read-out: Inhibition by 20 µM polyphyllin D (%)
# PTPN23 (HD-PTP) = target: T1, PTPN23 (HD-PTP) (Homo sapiens, UniProt Q9H3S7)
# T1 construct: 1179-1463
# T1 sequence (Q9H3S7 whole entry): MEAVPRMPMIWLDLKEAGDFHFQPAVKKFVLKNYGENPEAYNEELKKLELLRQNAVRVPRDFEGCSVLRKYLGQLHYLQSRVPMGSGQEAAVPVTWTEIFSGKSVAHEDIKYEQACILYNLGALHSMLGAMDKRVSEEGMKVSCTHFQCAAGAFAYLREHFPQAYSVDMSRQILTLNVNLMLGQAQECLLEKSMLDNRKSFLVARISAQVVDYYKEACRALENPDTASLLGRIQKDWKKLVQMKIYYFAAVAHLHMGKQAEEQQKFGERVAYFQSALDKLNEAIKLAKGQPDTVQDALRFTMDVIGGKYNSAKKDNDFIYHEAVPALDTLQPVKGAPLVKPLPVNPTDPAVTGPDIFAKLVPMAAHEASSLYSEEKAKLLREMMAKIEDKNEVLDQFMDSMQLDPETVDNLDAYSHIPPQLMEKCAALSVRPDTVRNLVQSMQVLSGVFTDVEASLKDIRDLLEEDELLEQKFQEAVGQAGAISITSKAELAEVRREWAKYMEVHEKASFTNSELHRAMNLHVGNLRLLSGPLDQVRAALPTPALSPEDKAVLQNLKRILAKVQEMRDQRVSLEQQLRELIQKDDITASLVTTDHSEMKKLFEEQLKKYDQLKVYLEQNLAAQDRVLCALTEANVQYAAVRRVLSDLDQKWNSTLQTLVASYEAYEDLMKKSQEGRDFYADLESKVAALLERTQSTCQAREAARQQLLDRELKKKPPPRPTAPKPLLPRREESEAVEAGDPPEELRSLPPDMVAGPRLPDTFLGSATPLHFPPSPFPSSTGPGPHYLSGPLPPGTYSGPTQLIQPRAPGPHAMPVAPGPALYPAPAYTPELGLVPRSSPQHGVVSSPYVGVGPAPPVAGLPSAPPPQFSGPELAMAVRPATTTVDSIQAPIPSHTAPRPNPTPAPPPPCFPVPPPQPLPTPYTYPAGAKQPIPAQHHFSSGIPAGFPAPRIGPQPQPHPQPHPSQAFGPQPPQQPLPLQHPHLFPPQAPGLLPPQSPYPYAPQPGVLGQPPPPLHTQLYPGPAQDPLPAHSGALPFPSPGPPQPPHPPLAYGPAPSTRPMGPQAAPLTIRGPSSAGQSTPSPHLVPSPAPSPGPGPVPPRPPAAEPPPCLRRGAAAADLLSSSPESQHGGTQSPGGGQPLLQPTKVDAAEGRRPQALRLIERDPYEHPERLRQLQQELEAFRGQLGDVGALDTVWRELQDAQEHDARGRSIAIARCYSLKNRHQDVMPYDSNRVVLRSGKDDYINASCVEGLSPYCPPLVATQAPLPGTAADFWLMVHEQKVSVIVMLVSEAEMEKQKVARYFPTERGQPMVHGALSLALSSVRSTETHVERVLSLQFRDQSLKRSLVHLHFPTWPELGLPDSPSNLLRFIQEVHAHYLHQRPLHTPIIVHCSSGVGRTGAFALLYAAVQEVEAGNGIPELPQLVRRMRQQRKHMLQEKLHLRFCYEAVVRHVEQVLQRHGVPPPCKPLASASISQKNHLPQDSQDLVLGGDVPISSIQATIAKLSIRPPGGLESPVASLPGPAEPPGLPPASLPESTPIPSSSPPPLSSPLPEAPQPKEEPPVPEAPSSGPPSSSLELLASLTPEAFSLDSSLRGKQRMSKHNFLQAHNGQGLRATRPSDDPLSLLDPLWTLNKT
# Method: (§1) Enzymatic reactions were initiated by the addition of SHP2 (final concentration of 10 nM) to a solution of each of the 658 phytochemical compounds (final concentration of 20 µM) in reaction buffer (20 mM bis-tris pH 6.0, 150 mM NaCl, 2.5 mM dithiothreitol, and 0.01% Triton X-100) containing DiFMUP (final concentration of 140 µM). Changes in the fluorescence intensities were measured continuously for 10 min at Ex/Em = 355/460 nm on a VictorTM X4 multilabel plate reader. Enzyme inhibition was estimated by comparing the reaction velocity in the presence of each compound with that in the absence of any compound. Inhibition of the other PTPs was measured in the same way. Next, we established a screening strategy using a DiFMUP substrate to identify a natural product that inhibits SHP2 activity. Initially, we screened 658 compounds at 20 µM using a 96-well plate system (Figure 2A). […] The selected compounds were tested at 20 µM for SHP2 inhibition, and 14 additional non-receptor-type PTPs (PTP1B, TCPTP, PTPH1, STEP, SHP1, HePTP, PTP-MEG2, PTP-PEST, PTP-BAS, PTP36, PTP-HSCF, PTPD1, LYP, and HD-PTP) were used to investigate the inhibition selectivity. The results were visualized using a heat map analysis by GraphPad Prism (Figure 2B and Table S2 in Supplementary Materials). To identify new SHP2 anticancer natural products, we first performed cloning to express SHP2 protein and then purified it. PTPN11 (Gene ID: 5781) encoding human SHP2 (amino acids sequences 1 to 526) with several extra amino acids were cloned into the MBP-pET 28a (+) vector, which was successfully used to overexpress PTPs with enhanced solubility in an Escherichia coli expression system. Information on amino acids for 15 non-receptor-type PTPs including SHP2 is summarized in Table S3 in the Supplementary Materials. SHP2 was overexpressed in RosettaTM (DE3) and purified using a metal affinity resin (Figure S1 in Supplementary Materials). […] The kcat, KM, and kcat/KM values were determined to be 270 min^−1, 70 μM, and 3.9 μM^−1min^−1, respectively, using the Lineweaver–Burk plot analysis (Table S1 in Supplementary Materials).
# PTPN9 (PTP-MEG2) = target: T2, PTPN9 (PTP-MEG2) (Homo sapiens, UniProt P43378)
# T2 construct: 277-582
# T2 sequence (P43378 1-593): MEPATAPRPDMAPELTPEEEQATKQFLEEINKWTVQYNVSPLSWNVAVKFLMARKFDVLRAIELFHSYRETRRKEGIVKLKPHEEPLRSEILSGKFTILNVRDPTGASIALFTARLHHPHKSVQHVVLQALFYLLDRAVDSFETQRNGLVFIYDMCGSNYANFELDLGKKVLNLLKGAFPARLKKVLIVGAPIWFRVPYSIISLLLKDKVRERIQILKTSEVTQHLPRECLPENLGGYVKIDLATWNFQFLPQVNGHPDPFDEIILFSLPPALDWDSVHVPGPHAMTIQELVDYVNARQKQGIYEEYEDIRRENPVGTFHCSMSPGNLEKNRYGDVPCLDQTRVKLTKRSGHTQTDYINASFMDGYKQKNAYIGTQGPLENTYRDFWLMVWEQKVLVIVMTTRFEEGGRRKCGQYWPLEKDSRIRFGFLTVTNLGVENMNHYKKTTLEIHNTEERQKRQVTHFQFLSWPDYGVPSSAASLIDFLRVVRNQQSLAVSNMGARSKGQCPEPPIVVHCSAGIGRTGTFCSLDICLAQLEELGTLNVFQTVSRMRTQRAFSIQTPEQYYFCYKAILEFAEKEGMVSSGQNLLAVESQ
# Method: as §1
# PTPN22 (LYP) = target: T3, PTPN22 (LYP) (Homo sapiens, UniProt Q9Y2R2)
# T3 construct: 1-326
# T3 sequence (Q9Y2R2 1-807): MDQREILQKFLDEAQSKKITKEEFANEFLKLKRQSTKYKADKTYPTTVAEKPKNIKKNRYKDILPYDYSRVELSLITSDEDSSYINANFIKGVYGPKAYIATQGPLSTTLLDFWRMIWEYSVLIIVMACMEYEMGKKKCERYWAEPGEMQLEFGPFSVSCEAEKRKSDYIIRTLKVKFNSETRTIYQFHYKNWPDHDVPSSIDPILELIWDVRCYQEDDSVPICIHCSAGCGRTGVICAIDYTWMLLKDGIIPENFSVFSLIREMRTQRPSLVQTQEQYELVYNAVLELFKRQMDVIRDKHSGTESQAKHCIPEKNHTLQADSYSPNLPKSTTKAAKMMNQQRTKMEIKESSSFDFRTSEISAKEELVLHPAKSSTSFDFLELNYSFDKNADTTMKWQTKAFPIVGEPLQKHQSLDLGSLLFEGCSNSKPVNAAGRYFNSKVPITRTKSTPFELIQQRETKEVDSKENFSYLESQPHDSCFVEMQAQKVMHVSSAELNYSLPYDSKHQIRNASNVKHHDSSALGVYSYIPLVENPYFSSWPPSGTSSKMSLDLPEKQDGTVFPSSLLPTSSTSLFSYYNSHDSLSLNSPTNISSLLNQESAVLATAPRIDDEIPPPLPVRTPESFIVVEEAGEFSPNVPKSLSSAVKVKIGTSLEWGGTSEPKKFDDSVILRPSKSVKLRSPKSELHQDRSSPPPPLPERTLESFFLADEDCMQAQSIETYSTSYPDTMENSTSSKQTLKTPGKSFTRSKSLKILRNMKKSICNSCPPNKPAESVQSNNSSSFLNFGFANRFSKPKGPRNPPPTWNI
# Method: as §1
smiles,measurement,setting,value
C[C@@H]1CC[C@@]2(OC1)O[C@H]1C[C@H]3[C@@H]4CC=C5C[C@@H](O[C@@H]6O[C@H](CO)[C@@H](O[C@@H]7O[C@@H](CO)[C@H](O)[C@H]7O)[C@H](O)[C@H]6O[C@@H]6O[C@@H](C)[C@H](O)[C@@H](O)[C@H]6O)CC[C@]5(C)[C@H]4CC[C@]3(C)[C@H]1[C@@H]2C [polyphyllin D],inhibition at 20 µM,PTPN23 (HD-PTP),0%
same,inhibition at 20 µM,PTPN9 (PTP-MEG2),0%
same,inhibition at 20 µM,PTPN22 (LYP),0.1%
